Experimental data published in ChEMBL document CHEMBL1152974, “Ionic interactions for substituted MCH1R inhibitors studied by pK(a) values” (Bioorg Med Chem Lett, 2009).

Columns and labels:
[1] = Association constant, pKa for quinoline nitrogen; format: physicochemical
[2] = Association constant, pKa for aliphatic nitrogen; format: physicochemical

SMILES	pKa [1]	pKa [2]
CC(=O)Nc1ccc2nc(N(C)CCO)ccc2c1	8.91	–
CC(=O)Nc1ccc2nc(C(C)(C)CCN(C)C)ccc2c1	6.22	12.4
CC(=O)Nc1ccc2nc(C(C)CCN(C)C)ccc2c1 (configuration not stated)	6.56	11.8
CC(=O)Nc1ccc2nc(SCCN(C)C)ccc2c1	4.33	11.6
CC(=O)Nc1ccc2nc(F)ccc2c1	-1.39	–
CC(=O)Nc1ccc2nc(N(C)CCN(C)C)ccc2c1	9.05	10.2
CC(=O)Nc1ccc2nc(NCCN(C)C)ccc2c1	12.2	10.8
CC(=O)Nc1ccc2nc(CCCN(C)C)ccc2c1	8.98	12.7
CC(=O)Nc1ccc2nc(OCCN(C)C)ccc2c1	4.64	9.94
CC(=O)Nc1ccc2ncccc2c1	5.51	–
